Results as given in US8188059B2, “Compounds and methods for modulating expression of GCGR” (Isis Pharmaceuticals, Inc., priority 2006, dated 2012).
Strand notation (5' to 3'): a small letter for the sugar, then the base; units joined by * are phosphorothioate-linked, units joined directly phosphodiester-linked; [ ] holds rarer units or linkages, { } end groups; capitals alone tell only the bases. e = 2'-O-(2-methoxyethyl) (MOE); [5mC] = 5-methylcytosine; d = 2'-deoxy (DNA)

How the values were obtained:
SGLT2 mRNA = SGLT2 mRNA levels in kidney of Balb/c mice, twenty 1-10-1 MOE gapmers at 350 nmol/kg, PPS 534 and PPS 553 (Example 18, Table 74); assay type: in vivo, mouse; details: 350 nmol/kg i.p. twice per week for two weeks
Protocol: Twenty 1-10-1 MOE gapmers that are complementary to human/monkey/mouse/rat SGLT2 were designed, synthesized and tested in vivo for suppression of SGLT2 mRNA levels in kidney. Data are averages from two experiments in which male 6-week old Balb/c mice were administered intraperitoneal injections of 350 nmol/kg of oligonucleotide, twice per week, over a period of two weeks (a total of four injections). Mice were sacrificed 48 hours following the last administration and evaluated for SGLT2 mRNA levels in kidney. SGLT2 mRNA levels were determined by quantitative real-time PCR analysis according to standard procedures, using two different PCR primer probe sets, primer probe set (PPS) 534 and PPS 553. SGLT2 mRNA levels were normalized to cyclophilin mRNA levels, which were also measured by quantitative real-time PCR.

PCSK9 mRNA [1] = assay type: cell-based, human; details: Hep3B cells, 100 nM, relative to untreated control cells; for % Inhib (PCSK9 mRNA): 0 = no reduction observed
Protocol: When cells reached appropriate confluency, they were treated with oligonucleotide using LIPOFECTIN® as described. […] Cells were treated and data were obtained in duplicate or triplicate. […] Cells were harvested 16-24 hours after oligonucleotide treatment.
Short antisense compounds targeted to a PCSK9 nucleic acid were tested for their effects on PCSK9 mRNA in vitro. The Isis No, gapmer motif and SEQ ID NO of each short antisense compound are shown again in Table 75. Cultured Hep3B cells were treated with 100 nM of short antisense compound. 5-10-5 MOE gapmers targeted to a PCSK9 nucleic acid were used as positive controls. After the treatment period, RNA was isolated from the cells and PCSK9 mRNA levels were measured by quantitative real-time PCR, as described herein. PCSK9 mRNA levels were adjusted according to total RNA content as measured by RIBOGREEN®. Results are presented in Table 75 as percent inhibition of PCSK9 (% Inhib), relative to untreated control cells.

PCSK9 mRNA [2] = experiment: Dose-dependent inhibition of PCSK9 in Hep3B cells with EC50 (Example 19, Table 76); assay type: cell-based, human
Protocol: Short antisense compounds targeted to a PCSK9 nucleic acid were tested in a dose response experiment Hep3B cells. After the treatment period, RNA was isolated from the cells and PCSK9 mRNA levels were measured by quantitative real-time PCR, as described herein. PCSK9 mRNA levels were normalized to cyclophilin mRNA levels, as measured by real-time PCR using a cyclophilin-specific primer probe set. Results are presented as percent inhibition of PCSK9, relative to untreated control cells. […] As illustrated in the following table, PCSK9 mRNA levels were reduced in a dose-dependent manner.

Row | Substance | SGLT2 mRNA in kidney, % change relative to saline (SGLT2 mRNA; primer probe set 534) [%] | SGLT2 mRNA in kidney, % change relative to saline (SGLT2 mRNA; primer probe set 553) [%] | also measured
1 | 379698 (antisense eG*d[5mC]*dA*dG*d[5mC]*d[5mC]*d[5mC]*dA*d[5mC]*d[5mC]*dT*e[5mC]) [compound 379698] | −11.8 | −27.0 | –
2 | 379692 (antisense eT*dG*dT*dT*d[5mC]*d[5mC]*dA*dG*d[5mC]*d[5mC]*d[5mC]*eA) [compound 379692] | −88.1 | −88.5 | –
3 | 400327 (eG*eT*d[5mC]*d[5mC]*d[5mC]*d[5mC]*dA*dA*dA*dG*dT*d[5mC]*e[5mC]*e[5mC]; antisense) [compound 400327] | – | – | % Inhibition Range (PCSK9 mRNA) (PCSK9 mRNA [1]): 30-40%; % Inhib (PCSK9 mRNA) (PCSK9 mRNA [1]): 36%; % Inhibition of PCSK9 (PCSK9 mRNA [2]; 5 nM): 5%; % Inhibition of PCSK9 (PCSK9 mRNA [2]; 10 nM): 37%; % Inhibition of PCSK9 (PCSK9 mRNA [2]; 20 nM): 23%; % Inhibition of PCSK9 (PCSK9 mRNA [2]; 40 nM): 49%; % Inhibition of PCSK9 (PCSK9 mRNA [2]; 80 nM): 43%; % Inhibition of PCSK9 (PCSK9 mRNA [2]; 160 nM): 55%
4 | 379687 (antisense eG*dA*dT*dG*dT*dT*dG*d[5mC]*dT*dG*dG*e[5mC]) [compound 379687] | −47.1 | −52.1 | –
5 | 379684 (antisense eT*dG*dT*d[5mC]*dA*dG*d[5mC]*dA*dG*dG*dA*eT) [compound 379684] | −45.0 | −43.2 | –
6 | 379694 (antisense eG*dA*d[5mC]*dG*dA*dA*dG*dG*dT*d[5mC]*dT*eG) [compound 379694] | −42.1 | −54.4 | –
7 | 400352 (antisense e[5mC]*eA*d[5mC]*d[5mC]*d[5mC]*dT*d[5mC]*dA*d[5mC]*d[5mC]*d[5mC]*d[5mC]*e[5mC]*eA) [compound 400352] | – | – | % Inhibition Range (PCSK9 mRNA) (PCSK9 mRNA [1]): 20-30%; % Inhib (PCSK9 mRNA) (PCSK9 mRNA [1]): 29%; % Inhibition of PCSK9 (PCSK9 mRNA [2]; 5 nM): 7%; % Inhibition of PCSK9 (PCSK9 mRNA [2]; 10 nM): 16%; % Inhibition of PCSK9 (PCSK9 mRNA [2]; 20 nM): 40%; % Inhibition of PCSK9 (PCSK9 mRNA [2]; 40 nM): 44%; % Inhibition of PCSK9 (PCSK9 mRNA [2]; 80 nM): 63%; % Inhibition of PCSK9 (PCSK9 mRNA [2]; 160 nM): 64%
8 | 379702 (antisense eG*d[5mC]*dA*d[5mC]*dA*d[5mC]*dA*dG*d[5mC]*dT*dG*e[5mC]) [compound 379702] | −87.8 | −89.5 | –
9 | 379697 (antisense e[5mC]*dT*dG*dG*d[5mC]*dA*dT*dG*dA*d[5mC]*d[5mC]*eA) [compound 379697] | −32.0 | −46.3 | –
10 | 379695 (antisense eG*dG*dA*d[5mC]*dA*d[5mC]*d[5mC]*dG*dT*d[5mC]*dA*eG) [compound 379695] | −52.5 | −64.1 | –
11 | 379700 (antisense e[5mC]*d[5mC]*dA*dG*d[5mC]*dA*dT*dG*dA*dG*dT*e[5mC]) [compound 379700] | −2.8 | −16.4 | –
